Data published in patent US8604073B2, “Antimicrobial composition” (Ethicon, Inc., priority 2006, dated 2013).

Experiments:
MRSA-002 = assay: Viable plate count, resistant bacteria, protocol of Example 1
Method: (§1) A portion of 0.05 ml of each dilution was added to 0.95 ml of bacterial culture (trypticase soy broth containing 10^6 CFU/ml).
MRSA used are MRSA-002 and MRSA-006.

MRSE 700563 [1] = assay: as above
Method: as §1
MRSA used are MRSA-002 and MRSA-006.

MRSE 700563 [2] = assay: Zone of inhibition of treated Nu-Gel hydrogel squares on inoculated TSA agar
Method: (§2) The zone of inhibition, which is defined as the average distance in millimeter from four edges of the square and four edges of the clear zone around the square, was measured.

MRSA 006 = assay: as above
Method: as §2

MRSE 51625 = assay: Viable plate count, resistant bacteria, protocol of Example 1
Method: as §1
MRSA used are MRSA-002 and MRSA-006.

MRSA-006 = assay: as above
Method: as §1
MRSA used are MRSA-002 and MRSA-006.

Compound	CFU/ml MRSA-002 (MRSA-002; 100 ppm)	CFU/ml MRSE 700563 (MRSE 700563 [1]; 100 ppm)	Zone of inhibition (mm) MRSE 700563 (MRSE 700563 [2]; 60 ug/cm^2, 48 hours at 37° C.) [mm]	Zone of inhibition (mm) MRSA 006 (MRSA 006; 60 ug/cm^2, 48 hours at 37° C.) [mm]	CFU/ml MRSE 51625 (MRSE 51625; 100 ppm)	CFU/ml MRSA-006 (MRSA-006; 100 ppm)	CFU/ml MRSA-002 (MRSA-002; 5 ppm)	CFU/ml MRSE 700563 (MRSE 700563 [1]; 5 ppm)	Zone of inhibition (mm) MRSE 700563 (MRSE 700563 [2]; 6 ug/cm^2, 48 hours at 37° C.) [mm]	Zone of inhibition (mm) MRSA 006 (MRSA 006; 6 ug/cm^2, 48 hours at 37° C.) [mm]	CFU/ml MRSE 51625 (MRSE 51625; 5 ppm)	CFU/ml MRSA-006 (MRSA-006; 5 ppm)
Polymixin B [Polymixin B (PY)]	1.2 × 10^9 CFU/ml	1.2 × 10^9 CFU/ml	0	0	6.2 × 10^8 CFU/ml	1.2 × 10^9 CFU/ml	–	–	–	–	–	–
CCCCCCCCCCCC(=O)N[C@@H](CCCN=C(N)N)C(=O)OCC.Cl [LAE, ethyl ester of the lauramide of the arginine monohydrochloride]	–	–	–	–	–	–	5.0 × 10^6 CFU/ml	4.0 × 10^8 CFU/ml	0	0	1.2 × 10^9 CFU/ml	6.2 × 10^8 CFU/ml
Cc1nnc(SCC2=C(C(=O)O)N3C(=O)[C@@H](NC(=O)Cn4cnnn4)[C@H]3SC2)s1 [Cefazolin (CF), Cefazolin]	1.1 × 10^9 CFU/ml	1.5 × 10^8 CFU/ml	0	0	1.5 × 10^6 CFU/ml	1.4 × 10^5 CFU/ml	–	–	–	–	–	–
